# Reference: patent US9029359B2, “Heteroaryl Btk inhibitors” (Biogen Idec MA, Inc., priority 2009, dated 2015)
# Biological target: T1, BTK (Homo sapiens, UniProt Q06187)
# T1 construct: purchased Upstate 14-552
# Assay: In vitro BTK kinase assay: BTK-POLYGAT-LS ASSAY
# Assay type: biochemical
# Conditions: ATP 10 uM
# Procedure, shortened: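 BTK phosphorylation of polyGAT (100 nM final) with ATP at 10 μM final, 10 mM Tris-HCl pH 7.5 kinase buffer, quenched by EDTA after 30 min. Potency given as IC50.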
# T1 sequence (Q06187 whole entry): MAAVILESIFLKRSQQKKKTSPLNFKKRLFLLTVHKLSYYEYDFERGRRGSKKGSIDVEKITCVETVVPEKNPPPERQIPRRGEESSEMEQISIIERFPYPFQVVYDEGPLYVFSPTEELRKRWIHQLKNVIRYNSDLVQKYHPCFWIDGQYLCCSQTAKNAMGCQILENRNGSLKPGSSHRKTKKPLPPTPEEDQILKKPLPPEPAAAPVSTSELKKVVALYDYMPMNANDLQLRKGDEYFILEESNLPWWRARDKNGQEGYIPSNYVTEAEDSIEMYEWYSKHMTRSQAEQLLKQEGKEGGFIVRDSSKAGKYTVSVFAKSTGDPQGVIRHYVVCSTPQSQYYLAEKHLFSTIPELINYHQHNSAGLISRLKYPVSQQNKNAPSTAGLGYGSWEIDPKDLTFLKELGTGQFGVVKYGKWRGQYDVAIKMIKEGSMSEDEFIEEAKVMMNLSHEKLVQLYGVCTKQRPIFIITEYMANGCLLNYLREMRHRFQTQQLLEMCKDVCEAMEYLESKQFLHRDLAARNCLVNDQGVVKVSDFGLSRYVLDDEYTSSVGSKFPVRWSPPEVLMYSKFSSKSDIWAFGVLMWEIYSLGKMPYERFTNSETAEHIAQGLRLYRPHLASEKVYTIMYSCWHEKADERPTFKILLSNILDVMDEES
row,Structure (SMILES),IC50 [µM]
1,"Cn1ccc2c(N3CCC[C@@H](NC(=O)[C@H](Nc4cc(F)cc(Cl)c4)C4CC4)C3)ncnc21 [Example 136, (R)-2-(3-chloro-5-fluorophenylamino)-2-cyclopropyl-N—((R)-1-(7-methyl-7H-pyrrolo[2,3-d]pyrimidin-4-yl)piperidin-3-yl)acetamide]",0.1 to 0.999
2,"Cn1ncc2c(N3CCC[C@@H](NC(=O)[C@H](Nc4cc(F)cc(Cl)c4)C4CC4)C3)ncnc21 [Example 137, (R)-2-(3-chloro-5-fluorophenylamino)-2-cyclopropyl-N—((R)-1-(1-methyl-1H-pyrazolo[3,4-d]pyrimidin-4-yl)piperidin-3-yl)acetamide]",1 to 10
3,"O=C(N[C@@H]1CCCN(c2ncnc3[nH]cc(F)c23)C1)[C@H](Nc1cc(F)cc(Cl)c1)C1CC1 [Example 138, (R)-2-(3-chloro-5-fluorophenylamino)-2-cyclopropyl-N—((R)-1-(5-fluoro-7H-pyrrolo[2,3-d]pyrimidin-4-yl)piperidin-3-yl)acetamide]",0.1 to 0.999
4,"Nc1ncnc(N2CCC[C@@H](NC(=O)CNc3cc(Cl)cc(Cl)c3)C2)c1Cl [Example 140, (R)—N-(1-(6-amino-5-chloropyrimidin-4-yl)piperidin-3-yl)-2-(3,5-dichlorophenylamino)acetamide]",0.1 to 0.999
5,"CC(=O)Nc1cc(N2CCC[C@@H](NC(=O)CNc3cc(Cl)cc(Cl)c3)C2)ncn1 [Example 141, (R)—N-(1-(6-acetamidopyrimidin-4-yl)piperidin-3-yl)-2-(3,5-dichlorophenylamino)acetamide]",1 to 10
6,"CC(C)Nc1cc(N2CCC[C@@H](NC(=O)CNc3cc(Cl)cc(Cl)c3)C2)ncn1 [Example 142, (R)-2-(3,5-dichlorophenylamino)-N-(1-(6-(isopropylamino)pyrimidin-4-yl)piperidin-3-yl)acetamide]",1 to 10
7,"CCNc1cc(N2CCC[C@@H](NC(=O)CNc3cc(Cl)cc(Cl)c3)C2)ncn1 [Example 143, (R)-2-(3,5-dichlorophenylamino)-N-(1-(6-(ethylamino)pyrimidin-4-yl)piperidin-3-yl)acetamide]",1 to 10
8,"CNc1cc(N2CCC[C@@H](NC(=O)CNc3cc(Cl)cc(Cl)c3)C2)ncn1 [Example 144, (R)-2-(3,5-dichlorophenylamino)-N-(1-(6-(methylamino)pyrimidin-4-yl)piperidin-3-yl)acetamide]",0.1 to 0.999
9,"C[C@H]1CC[C@@H](NC(=O)[C@H](Nc2cc(F)cc(Cl)c2)C2CC2)CN1c1ncnc2[nH]ncc12 [Example 148, (R)-2-(3-chloro-5-fluorophenylamino)-2-cyclopropyl-N-((3R,6S)-6-methyl-1-(1H-pyrazolo[3,4-d]pyrimidin-4-yl)piperidin-3-yl)acetamide]",0.1 to 0.999
10,"O=C(NC1CN(c2ncnc3[nH]ncc23)CCC1c1ccccc1)[C@H](Nc1cc(F)cc(Cl)c1)C1CC1 (stereo partly drawn) [Example 149, (R)-2-(3-chloro-5-fluorophenylamino)-2-cyclopropyl-N-(4-phenyl-1-(1H-pyrazolo[3,4-d]pyrimidin-4-yl)piperidin-3-yl)acetamide]",< 0.1
11,"C[C@H]1CCN(c2ncnc3[nH]ncc23)C[C@@H]1NC(=O)[C@H](Nc1cc(Cl)cc(Cl)c1)C1CC1 [Example 152, (R)-2-cyclopropyl-2-(3,5-dichlorophenylamino)-N-((3R,4S)-4-methyl-1-(1H-pyrazolo[3,4-d]pyrimidin-4-yl)piperidin-3-yl)acetamide]",< 0.1
12,CCC[C@@H](Nc1cc(Cl)cc(Cl)c1)C(=O)N[C@H]1CN(c2ncnc3[nH]ncc23)CC[C@@H]1C [Example 153],< 0.1
13,CC[C@@H](Nc1cc(F)cc(Cl)c1)C(=O)N[C@H]1CN(c2ncnc3[nH]ncc23)CC[C@@H]1C [Example 154],< 0.1
14,O=C(CNc1ccccc1S(=O)(=O)c1ccccc1)N[C@@H]1CCCN(c2ncnc3[nH]ncc23)C1 [Example 163],< 0.1
15,C[C@@H](O)[C@@H](Nc1cc(Cl)cc(Cl)c1)C(=O)N[C@@H]1CCCN(c2ncnc3[nH]ncc23)C1 [Example 164],< 0.1
16,C[C@H](O)[C@@H](Nc1cc(Cl)cc(Cl)c1)C(=O)N[C@@H]1CCCN(c2ncnc3[nH]ncc23)C1 [Example 165],< 0.1

row,Structure (SMILES),IC50 [µM]
1,CCC[C@@H](Nc1cc(Cl)cc(Cl)c1)C(=O)N[C@@H]1CCCN(c2ncnc3[nH]ncc23)C1 [Example 166],< 0.1
2,O=C(CNc1ccccc1Sc1ccccc1)N[C@@H]1CCCN(c2ncnc3[nH]ncc23)C1 [Example 167],< 0.1
3,CCC[C@@H](Nc1cc(F)cc(Cl)c1)C(=O)N[C@@H]1CCCN(c2ncnc3[nH]ncc23)C1 [Example 168],< 0.1
4,CCC[C@@H](Nc1cccc(Cl)c1)C(=O)N[C@@H]1CCCN(c2ncnc3[nH]ncc23)C1 [Example 169],< 0.1
5,O=C(CNc1ccccc1S(=O)(=O)N1CCCCC1)NC1CCCCN(c2ncnc3[nH]ncc23)C1 (stereo not shown) [Example 170],< 0.1
6,C[C@@H](O)[C@@H](Nc1cc(F)cc(Cl)c1)C(=O)N[C@@H]1CCCN(c2ncnc3[nH]ncc23)C1 [Example 171],< 0.1
7,CCCN(CC)S(=O)(=O)c1ccccc1NCC(=O)N[C@@H]1CCCN(c2ncnc3[nH]ncc23)C1 [Example 172],< 0.1
8,O=C(CNc1ccccc1S(=O)(=O)c1ccccc1)N[C@@H]1CCCN(c2ncnc3[nH]ccc23)C1 [Example 173],< 0.1
9,C[C@H](O)[C@@H](Nc1cc(F)cc(Cl)c1)C(=O)N[C@@H]1CCCN(c2ncnc3[nH]ncc23)C1 [Example 174],< 0.1
10,O=C(CNc1ccccc1S(=O)(=O)N1CCC(F)(F)CC1)N[C@@H]1CCCN(c2ncnc3[nH]ncc23)C1 [Example 176],< 0.1
11,CCC[C@@H](Nc1cc(Cl)cc(Cl)c1)C(=O)N[C@@H]1CCCN(c2ncnc3[nH]ccc23)C1 [Example 178],< 0.1
12,CC(C)CN(CC(C)C)S(=O)(=O)c1ccccc1NCC(=O)N[C@@H]1CCCN(c2ncnc3[nH]ccc23)C1 [Example 179],< 0.1
13,CC[C@@H](C)[C@@H](Nc1cc(F)cc(Cl)c1)C(=O)N[C@@H]1CCCN(c2ncnc3[nH]ncc23)C1 [Example 180],< 0.1
14,C[C@H](O)[C@@H](Nc1cc(Cl)cc(Cl)c1)C(=O)N[C@@H]1CCCN(c2ncnc3[nH]ccc23)C1 [Example 181],< 0.1
15,O=C(CNc1ccccc1S(=O)(=O)N1CCCCC1)N[C@@H]1CCCN(c2ncnc3[nH]ccc23)C1 [Example 182],< 0.1
16,O=C(CNc1ccccc1S(=O)(=O)N1CCCCC1)N[C@@H]1CCCN(c2ncnc3[nH]ncc23)C1 [Example 183],< 0.1

# The next lines start with the values.
row,IC50 [µM],Structure (SMILES)
1,< 0.1,O=C(NC1CCCCN(c2ncnc3[nH]ncc23)C1)[C@H](Nc1cc(F)cc(Cl)c1)C1CC1 (stereo partly shown) [Example 184]
2,< 0.1,C[C@@H](Nc1cc(F)cc(Cl)c1)C(=O)N[C@@H]1CCCN(c2ncnc3[nH]ncc23)C1 [Example 185]
3,< 0.1,CC(C)CN(CC(C)C)S(=O)(=O)c1ccccc1NCC(=O)N[C@@H]1CCCN(c2ncnc3[nH]ncc23)C1 [Example 186]
4,< 0.1,O=C(CNc1ccccc1S(=O)(=O)c1cccc(C(F)(F)F)c1)N[C@@H]1CCCN(c2ncnc3[nH]ncc23)C1 [Example 187]
5,< 0.1,CC(C)CCSc1ccccc1NCC(=O)N[C@@H]1CCCN(c2ncnc3[nH]ccc23)C1 [Example 188]
6,< 0.1,CC1CCCN1S(=O)(=O)c1ccccc1NCC(=O)N[C@@H]1CCCN(c2ncnc3[nH]ncc23)C1 (stereo partly shown) [Example 189]
7,< 0.1,CC[C@H](C)[C@@H](Nc1cc(F)cc(Cl)c1)C(=O)N[C@@H]1CCCN(c2ncnc3[nH]ncc23)C1 [Example 192]
8,< 0.1,CCCC[C@@H](Nc1cc(F)cc(Cl)c1)C(=O)N[C@@H]1CCCN(c2ncnc3[nH]ncc23)C1 [Example 193]
9,< 0.1,O=C(CNc1ccccc1Sc1ccccc1)N[C@@H]1CCCN(c2ncnc3[nH]ccc23)C1 [Example 194]
10,< 0.1,CCN(CC)S(=O)(=O)c1ccccc1NCC(=O)N[C@@H]1CCCN(c2ncnc3[nH]ncc23)C1 [Example 195]
11,< 0.1,CCN(C(C)C)S(=O)(=O)c1ccccc1NCC(=O)N[C@@H]1CCCN(c2ncnc3[nH]ncc23)C1 [Example 196]
12,< 0.1,CCC[C@@H](Nc1cc(F)cc(Cl)c1)C(=O)N[C@@H]1CCCN(c2ncnc3[nH]ccc23)C1 [Example 197]
13,< 0.1,CC1(C)CCCN(S(=O)(=O)c2ccccc2NCC(=O)N[C@@H]2CCCN(c3ncnc4[nH]ncc34)C2)C1 [Example 198]
14,< 0.1,CCCCOc1ccccc1NCC(=O)N[C@@H]1CCCN(c2ncnc3[nH]ccc23)C1 [Example 199]
15,< 0.1,CC(C)(C)[C@@H](Nc1cc(F)cc(Cl)c1)C(=O)N[C@@H]1CCCN(c2ncnc3[nH]ncc23)C1 [Example 200]
16,< 0.1,CC(C)(C)[C@@H](Nc1cc(Cl)cc(Cl)c1)C(=O)N[C@@H]1CCCN(c2ncnc3[nH]ccc23)C1 [Example 202]
17,< 0.1,O=C(CNc1ccccc1S(=O)(=O)N1CCCC1)N[C@@H]1CCCN(c2ncnc3[nH]ccc23)C1 [Example 203]
18,< 0.1,O=C(CNc1ccccc1Oc1ccccc1)N[C@@H]1CCCN(c2ncnc3[nH]ncc23)C1 [Example 204]
19,< 0.1,O=C(CNc1ccccc1S(=O)(=O)N1CCCC1)N[C@@H]1CCCN(c2ncnc3[nH]ncc23)C1 [Example 205]
20,< 0.1,C[C@H](O)[C@@H](Nc1cc(F)cc(Cl)c1)C(=O)N[C@@H]1CCCN(c2ncnc3[nH]ccc23)C1 [Example 206]
21,< 0.1,CCN(C)S(=O)(=O)c1ccccc1NCC(=O)N[C@@H]1CCCN(c2ncnc3[nH]ccc23)C1 [Example 207]
22,< 0.1,CCN(CC)S(=O)(=O)c1ccccc1NCC(=O)N[C@@H]1CCCN(c2ncnc3[nH]ccc23)C1 [Example 208]
23,< 0.1,CC(C)[C@@H](Nc1cc(F)cc(Cl)c1)C(=O)N[C@@H]1CCCN(c2ncnc3[nH]ccc23)C1 [Example 209]
24,< 0.1,CC(C)c1ccccc1NCC(=O)N[C@@H]1CCCN(c2ncnc3[nH]ccc23)C1 [Example 210]
25,< 0.1,CN(C1CCCC1)S(=O)(=O)c1ccccc1NCC(=O)N[C@@H]1CCCN(c2ncnc3[nH]ncc23)C1 [Example 211]
26,< 0.1,CC1CCN(S(=O)(=O)c2ccccc2NCC(=O)N[C@@H]2CCCN(c3ncnc4[nH]ncc34)C2)CC1 [Example 212]
